Reference: patent publication US20030073850A1, “4-Imidazole derivatives of benzyl and restricted benzyl sulfonamides, sulfamides, ureas, carbamates, and amides and their use” (priority 1998, published 2003)
Structures can show the parent of a compound that is named as a salt. Where two headings read alike, the source gives them in different places.

Legend:
anesthetized dogs [1] = assay: Mean arterial pressure (MAP) in anesthetized dogs; format: in vivo, dog; conditions: iv dose causing a maximum increase in MAP of 20 mm Hg, anesthetized female Beagle dogs
Source text: (§1) Female Beagle dogs (Marshall Farms, North Rose, N.Y.) greater that 2 years of age and weighing between 12 and 15 kg were used in these studies. At least 2 weeks prior to any agonist dosing, dogs were instrumented for the chronic measurement of arterial blood pressure by implanting a telemetry transducer/transmitter (TA11PA-C40, Data Sciences International, St. Paul, Minn.) into a carotid artery.
(§2) On the test day, dogs fasted since the previous afternoon were pre-anesthetized with thiopental sodium 15 mg/kg i.v. (Pentothal™, Abbott) and intubated. Anesthesia was maintained by allowing the dog to spontaneously breathe a mixture of isoflurane (2.5 to 3 volume %) and oxygen delivered by a Narkomed Standard anesthesia system (North American Drager, Telford, Pa.). An Abbocath-T™ i.v. catheter (18-G, Abbott) was inserted into the cephalic vein for the administration of agonists. A telemetry receiver (RA1310, DataSciences) was placed under the head of each dog and was interfaced to a computerized data acquisition system (Modular Instruments Inc.(MI2), Malvern, Pa.) which allowed for the continuous calibrated recording of arterial blood pressure which was electronically filtered to determine its mean value (MAP).
(§3) From the resulting dose response curve, an ED5 value, for the dose causing a maximum increase in IUP of 5 mm Hg, could be estimated. An ED20 value for the dose causing a maximum increase in MAP of 20 mm Hg could also be estimated. A selectivity ratio of MAP ED20 vs. IUP ED, was calculated.

[2] = target: T1, α1b (hamster receptor expressed in mouse fibroblasts) (Mesocricetus auratus, UniProt P18841); assay: Radioligand binding, [3H]-prazosin, α1b
T1 construct: expressed in transfected cells; host or cells: mouse fibroblasts
T1 sequence (P18841 1-515): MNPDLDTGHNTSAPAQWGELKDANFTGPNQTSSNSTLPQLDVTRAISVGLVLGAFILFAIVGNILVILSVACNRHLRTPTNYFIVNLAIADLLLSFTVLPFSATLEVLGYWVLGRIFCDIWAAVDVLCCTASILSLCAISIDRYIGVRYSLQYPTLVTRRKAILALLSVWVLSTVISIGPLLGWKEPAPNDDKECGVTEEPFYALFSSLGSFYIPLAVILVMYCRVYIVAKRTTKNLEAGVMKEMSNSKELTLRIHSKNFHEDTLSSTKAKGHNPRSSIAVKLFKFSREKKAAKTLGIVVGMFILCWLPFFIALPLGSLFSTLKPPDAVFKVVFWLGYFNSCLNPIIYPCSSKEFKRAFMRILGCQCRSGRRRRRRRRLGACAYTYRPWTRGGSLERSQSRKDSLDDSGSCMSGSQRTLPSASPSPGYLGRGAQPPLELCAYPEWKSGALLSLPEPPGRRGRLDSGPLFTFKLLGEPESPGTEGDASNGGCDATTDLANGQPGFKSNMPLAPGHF
Experimental: (§4) For purposes of discussing a, adrenoceptor subtypes, the IUPHAR convention of using lower case letters to define molecular clones and upper case letters to indicate pharmacologically defined adrenoceptors has been followed. Compounds of formula I were evaluated in radioligand binding assays specific for α1A (rat submaxillary gland), α1b (hamster receptor expressed in mouse fibroblasts) and α1d (rat receptor expressed in mouse fibroblasts) using [^3H]-prazosin as the radioligand as described in Knepper, et al. J. Pharm.

anesthetized dogs [3] = assay: Intraurethral pressure (IUP) in anesthetized dogs; format: in vivo, dog; conditions: for ED (5 mm Hg): Canis lupus familiaris, read-out: Mean IUP ED5; for Mean Selectivity Ratio MAP ED20/IUP ED5: anesthetized dogs, iv
Source text: as §1, §2
Dogs with chronic telemetry implants anesthetized as described above were placed in dorsal recumbency and a balloon catheter was inserted into the urethral orifice and advanced approximately 15 cm until the tip was well inside the bladder. The balloon was then inflated with 1 ml of room air and the catheter slowly withdrawn until resistance (corresponding to the bladder neck) was evident. The balloon was then deflated and the catheter withdrawn additional 2 cm. The balloon was then reinflated and its catheter port connected to a Gould Statham P23Dd pressure transducer interfaced to a computerized data acquisition system (Modular Instruments, Inc., Malvern, Pa.) for the measurement of the intraurethral pressure. Increasing iv doses of test agonists were administered and the maximum effect of each dose on IUP was recorded. The effect of each dose was allowed to return to baseline before the next dose was given.
as §3

[4] = target: T2, α1d (rat receptor expressed in mouse fibroblasts) (Rattus norvegicus, UniProt P23944); assay: Radioligand binding, [3H]-prazosin, α1d
T2 construct: expressed in transfected cells; host or cells: mouse fibroblasts
T2 sequence (P23944 1-561): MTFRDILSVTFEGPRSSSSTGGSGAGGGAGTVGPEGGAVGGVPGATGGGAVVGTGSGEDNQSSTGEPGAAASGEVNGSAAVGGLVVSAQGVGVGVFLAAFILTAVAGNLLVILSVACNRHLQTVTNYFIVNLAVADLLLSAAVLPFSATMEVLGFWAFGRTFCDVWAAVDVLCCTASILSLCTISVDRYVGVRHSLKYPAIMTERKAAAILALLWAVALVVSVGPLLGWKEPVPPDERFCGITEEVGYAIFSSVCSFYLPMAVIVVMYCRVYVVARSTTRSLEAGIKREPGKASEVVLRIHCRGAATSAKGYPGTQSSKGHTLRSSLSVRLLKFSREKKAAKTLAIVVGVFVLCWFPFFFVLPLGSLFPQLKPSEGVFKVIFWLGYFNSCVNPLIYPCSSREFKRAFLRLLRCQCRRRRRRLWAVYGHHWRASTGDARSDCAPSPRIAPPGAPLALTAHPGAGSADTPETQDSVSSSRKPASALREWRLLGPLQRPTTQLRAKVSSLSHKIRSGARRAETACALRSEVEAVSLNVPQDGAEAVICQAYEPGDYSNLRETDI
Experimental: as §4

[5] = target: T3, α1A (rat submaxillary gland) (Rattus norvegicus, UniProt P43140); assay: Radioligand binding, [3H]-prazosin, α1A
T3 construct: α1A (rat submaxillary gland); from tissue; host or cells: rat submaxillary gland
T3 sequence (P43140 1-466): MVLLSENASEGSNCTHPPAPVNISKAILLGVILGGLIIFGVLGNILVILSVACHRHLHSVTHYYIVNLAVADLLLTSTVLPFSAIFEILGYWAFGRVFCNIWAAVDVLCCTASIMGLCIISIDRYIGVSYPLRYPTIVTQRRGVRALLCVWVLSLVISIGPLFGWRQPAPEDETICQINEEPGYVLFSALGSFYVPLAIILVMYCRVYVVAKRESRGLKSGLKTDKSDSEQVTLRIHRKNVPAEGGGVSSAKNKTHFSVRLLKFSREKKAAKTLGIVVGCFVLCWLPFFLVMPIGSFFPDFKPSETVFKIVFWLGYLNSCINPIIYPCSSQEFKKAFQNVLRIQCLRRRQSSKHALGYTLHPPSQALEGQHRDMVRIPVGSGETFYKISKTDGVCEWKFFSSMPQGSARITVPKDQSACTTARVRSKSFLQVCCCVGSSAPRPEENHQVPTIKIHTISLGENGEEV
Experimental: as §4

[6] = hamster receptor expressed in mouse fibroblasts, [3H]-prazosin, read-out: Radioligand Binding Ki α1b (Hamster)
[7] = iv dose causing a maximum increase in IUP of 5 mm Hg, anesthetized female Beagle dogs
[8] = rat receptor expressed in mouse fibroblasts, [3H]-prazosin, read-out: Radioligand Binding Ki α1d (Rat)

Structure (SMILES)	Mean MAP ED20 (anesthetized dogs [1]) [nmol/kg]	melting point [°C]	Ki [2, 6] [µM]	ED (5 mm Hg) (anesthetized dogs [3]; [7]) [µmol/kg]	also measured
Cl.Cn1cnc(C2CCCc3c(NS(C)(=O)=O)cccc32)c1 (stereo not drawn) [Example 14, N-[5,6,7,8-tetrahydro-5-(1-methyl-1H-imidazol-4-yl)-1-naphthalenyl]methanesulfonamide, Hydrochloride]	>1000	130 to 135	–	–	–
CCS(=O)(=O)Nc1cccc2c1CCCC2c1c[nH]cn1.O=C(O)/C=C\C(=O)O (single isomer, unassigned; (-)) [Example 34, (−)-N-[5-(1H-imidazol-4-yl)-5,6,7,8-tetrahydro-1-naphthalenyl]ethanesulfonamide, Maleate]	–	129 to 130	–	–	Ki ([2]; hamster receptor expressed in mouse fibroblasts, [3H]-prazosin, Maleate, read-out: Radioligand Binding Ki α1b (Hamster)): 10 µM; Mean MAP ED20 (anesthetized dogs [1]; Maleate): >1000 nmol/kg
CN(c1cccc2c1CCCC2c1c[nH]cn1)S(C)(=O)=O.O=C(O)/C=C\C(=O)O (stereo not drawn) [Example 15, N-[5-(1H-imidazol-4-yl)-5,6,7,8-tetrahydro-1-naphthalenyl]-N-methylmethanesulfonamide, Maleate]	225	–	10	0.0919	–
COc1ccc(NS(C)(=O)=O)c2c1C(c1c[nH]cn1)CCC2 (stereo not drawn) [Example 26, N-[5,6,7,8-tetrahydro-(1H-imidazol-4-yl)-4-methoxy-1-naphthalenyl]methanesulfonamide, Maleate]	–	–	10	–	Ki [4, 8]: 10 µM; Mean IUP ED5 (anesthetized dogs [3]; [7]): 653 nmol/kg
CS(=O)(=O)Nc1cccc2c1CCC[C@@H]2c1c[nH]cn1 [Example 10, (−)-N-[(5S)-5-(1H-imidazol-4-yl)-5,6,7,8-tetrahydro-1-naphthalenyl]methanesulfonamide]	>1000	118 to 123	–	> 1	–
CCS(=O)(=O)Nc1cc(F)cc2c1OCCC2c1c[nH]cn1.O=C(O)/C=C\C(=O)O (stereo not drawn) [Example 80, N-[6-fluoro-4-(1H-imidazol-4-yl)-3,4-dihydro-2H-chromen-8-yl]ethanesulfonamide, Maleate]	125.78	–	10	0.113	Ki [5]: 0.378 µM; Ki [4, 8]: 1.59 µM; Mean Selectivity Ratio MAP ED20/IUP ED5 (anesthetized dogs [3]): 1.12
CCS(=O)(=O)Nc1cc(Cl)cc2c1CCCC2c1c[nH]cn1 (stereo not drawn) [Example 132, N-[3-chloro-5-(1H-imidazol-4-yl)-5,6,7,8-tetrahydro-1-naphthalenyl]ethanesulfonamide]	47.7	–	–	0.019	Ki [5]: 0.047 µM; Ki [2]: 10 µM; Ki [4]: 0.367 µM; Mean Selectivity Ratio MAP ED20/IUP ED5 (anesthetized dogs [3]): 2.5
CS(=O)(=O)Nc1cccc2c1OCCC2c1c[nH]cn1.O=C(O)/C=C\C(=O)O (single isomer, unassigned; (+)) [Example 93, (+) N-[4-(1H-imidazol-4-yl)-3,4-dihydro-2H-chromen-8-yl]methanesulfonamide Maleate]	–	205 to 208	–	0.038	–
CS(=O)(=O)Nc1ccc(F)c2c1CCCC2c1c[nH]cn1.O=C(O)/C=C\C(=O)O (stereo not drawn) [Example 44, N-[4-fluoro-5-(1H-imidazol-4-yl)-5,6,7,8-tetrahydro-1-naphthalenyl]methanesulfonamide, Maleate]	588	182 to 186	10	0.892	–
O=C(Nc1cccc2c1CCCC2c1c[nH]cn1)C(F)(F)F.O=C(O)/C=C\C(=O)O (stereo not drawn) [Example 17, 2,2,2-trifluoro-N-[5-(1H-imidazol-4-yl)-5,6,7,8-tetrahydro-1-naphthalenyl]acetamide, maleate]	216	–	10	0.188	–
CC(=O)Nc1cccc2c1CCCC2c1c[nH]cn1.O=C(O)/C=C\C(=O)O (stereo not drawn) [Example 16, N-[5,6,7,8-tetrahydro-5-(1H-imidazol-4-yl)-1-naphthalenyl]acetamide, Maleate]	220	159 to 160	–	–	–
C=C(c1cccc(NS(=O)(=O)CC)c1)c1c[nH]cn1.O=C(O)/C=C\C(=O)O [Example 45, N-{3-[1-(1H-imidazol-4-yl)vinyl]phenyl}ethanesulfonamide, Maleate]	633	–	–	0.273	–
CCS(=O)(=O)Nc1cccc2c1CCCC2c1c[nH]cn1.O=C(O)/C=C\C(=O)O (single isomer, unassigned; (+)) [Example 33, (+)-N-[5-(1H-imidazol-4-yl)-5,6,7,8-tetrahydro-1-naphthalenyl]ethanesulfonamide, Maleate]	–	–	–	–	Mean MAP ED20 (anesthetized dogs [1]; Maleate): 34.0 nmol/kg
CCS(=O)(=O)Nc1cccc2c1CCC2c1c[nH]cn1.O=C(O)/C=C\C(=O)O (stereo not drawn) [Example 39, N-[1-(1H-imidazol-4-yl)-2,3-dihydro-1H-inden-4-yl]ethanesulfonamide, Maleate]	5.6	148 to 149	–	–	–
